Assay results taken from US10864251B2, “Peptides of syndecan-1 for inhibiting angiogenesis” (Wisconsin Alumni Research Foundation, priority 2006, dated 2020).

What was measured:
Assay type in all cases: cell-based
[1] = system: human dermal microvascular endothelial cells (HMEC-1); settings: HMEC-1, truncated peptides compared to SSTN82-130, FIG. 14
Experimental: FIGS. 6A-6H—Inhibition of B82L fibroblast and HMEC-1 cell attachment and spreading on VN by synstatin82-130. B82L fibroblasts, which rely on the αvβ5 integrin for attachment to VN, and human dermal microvascular endothelial cells, which rely on both the αvβ3 and αvβ5 integrins for attachment to VN, were plated in the absence of peptide (FIGS. 6A, 6E) or in the presence of 0.1 (FIGS. 6B, 6F), 0.3 (FIGS. 6C, 6G) or 1 μM (FIGS. 6D, 6H) synstatin82-130 for 2 hr and processed as described in FIG. 2.
FIGS. 10A-10D—Dependence of HMEC cell attachment and spreading on integrin activation by Sdc1 and its inhibition by SSTN. (FIG. 10A) HMECs were plated for 2 hr either on Sdc1-specific antibody B-B4 to engage Sdc1 or on VN (10 μg/ml coating concentration) to engage the αvβ3 and αvβ5 integrins. Blocking antibodies LM609 (10 μg/ml, specific for αvβ3) and P1F6 (10 μg/ml, specific for αvβ5), SSTN (0.5 μM) or recombinant mouse Sdc1 ectodomain (mS1ED, 5 μM) were added. The ligand mimetic antibody WOW1 was used to detect activated αvβ3 integrin on cells plated on B-B4. (FIG. 10B) HMECs were treated with siRNA oligo specific for human Sdc1 for 48 hr prior to plating on VN. Sdc1 expression was quantified by flow cytometry using human Sdc1-specific mAb B-B4 or a control mouse IgG. (FIG. 10C-10D) The percentage of cell attaching or attaching and spreading was quantified for HMECs, HAEC and MAECs plated on VN for 24 hr in the presence of mS1ED or SSTN, or after siRNA silencing of Sdc1 expression in the presence of mAb LM609 to block αvβ3 integrin, P1F6 to block αvβ5 integrin, or both antibodies.
FIG. 14—Activity of SSTN peptides. A diagram of SSTN82-130 used in our experiments is shown. The gray letters designate amino acids that are identical or highly conserved across species (mouse, human, rat, hamster). Shorter peptides have been tested using HMEC-1 endothelial cells for inhibition of […] mediated cell attachment and spreading in comparison to SSTN82-130.
(§1) Cell adhesion and spreading assays were performed with modification to the previous procedures (Lebakken and Rapraeger, 1996. Briefly, human plasma vitronectin or fibronectin at 10-30 μg/ml were applied to nitrocellulose-coated ten well slides (Erie Scientific) and incubated for 1-2 h at 37° C. Slides were blocked with 1.0% heat-denatured bovine serum albumin for a minimum of 30 min at 37° C. Cells were detached from the substratum using 5 mM EDTA in Tris-buffered saline and resuspended in HEPES-buffered culture medium containing 0.1% heat-denatured BSA. Cells were plated at a density of 15,000 cells per well and allowed to attach and spread for 2 h prior to fixation in 4% paraformaldehyde in CMF-PBS. For fluorescence microscopy, fixed cells were permeabilized in 0.2% Triton X-100, labeled with rhodamine-conjugated phalloidin and analyzed using fluorescence microscopy. For testing inhibition by recombinant mScd-1ED and synstatin82-130, cells were pre-incubated 10 min before plating in the presence of the inhibitor. […] LM609 was used as a specific block to αvβ3 and P1F6 was used as a specific blocker of αvβ5.
Finally, the inventors have examined HMEC-1 cells, which are immortalized human dermal microvascular endothelial cells. Microvascular endothelial cells are regarded as being the main source of endothelial cells that carry out angiogenesis in vivo. The HMEC-1 cells grown in serum-containing culture medium express Sdc1 (as noted earlier) and also express active αvβ3 and αvβ5 integrins. […]

[2] = system: MDA-MB-231 human mammary carcinoma cells; settings: MDA-MB-231, 0.1-1.0 μM SSTN peptide, 2 hr
Experimental: (§2) FIGS. 5A-5F—Inhibition of MDA-MB-231 human mammary carcinoma cell attachment and spreading on VN by synstatin82-130. MDA-MB-231 human mammary carcinoma cells, which rely on the αvβ3 integrin for attachment and spreading on VN, were plated on 10 μg/ml VN for 2 hr in the absence of peptide (FIG. 5A) or in the presence of 0.1 (FIG. 5B), 0.3 (FIG. 5C) or 1 μM (FIG. 5D) synstatin82-130. The cells were fixed and stained as in FIG. 2.
(§3) FIG. 17—Human SSTN peptides inhibit αvβ3-mediated cell attachment and spreading on vitronectin. MDA-MB-231 human mammary carcinoma cells were allowed to attach and spread on either vitronectin (VN) or fibronectin (FN) during a 2 hr assay in the presence of 0, 0.1, 0.3, 0.5, 1.0 or 30 μM SSTN peptide. […] The two peptides tested are derived either from amino acids 88-121 (hSSTN 88-121) or 89-120 (hSSTN 89-120) of the human Sdc1 sequence. Adhesion to VN, but not FN, is mediated by the αvβ3 integrin on these cells and is disrupted by the human SSTN peptides.
as §1
The inventors have tested the adhesion and spreading of MDA-MB-231 mammary carcinoma cells on VN in the presence or absence of synstatin82-130. These cells rely specifically on the active αvβ3 integrin for this adhesion (Beauvais et al., 2004). Recombinant Sdc1 ectodomain (SLED) has been shown by the inventors previously to block spreading of these cells with an IC50 of about 3-10 μM (Beauvais et al., 2004). […] Thus, synstatin82-130 is a specific and effective inhibitor of αvβ3 integrin activation.

[3] = system: MDA-MB-231 human mammary carcinoma cells; assay: Cell attachment and spreading on fibronectin (control ligand), MDA-MB-231 cells; settings: MDA-MB-231, 30 μM, 100-fold greater than IC50
Experimental: as §2
as §3, with “peptides. […]” for “peptides.”

Substance	activity in cell attachment and spreading assays on VN [1]	attachment and spreading on VN [2]	attachment and spreading on fibronectin (FN) [3]
SSTN88-121: truncated mouse SSTN peptide, amino acids 88-121 (FTSVLPAGEKPEEGEPVLHVEAEPGFTARDKEKE; UniProt P18828 88-121, looked up, fragment)	active	–	–
hSSTN 89-120: human SSTN, amino acids 89-120 of the human Sdc1 sequence, SEQ ID NO:21 (STSTLPAGEGPKEGEAVVLPEVEPGLTAREQE)	–	disrupted	lack of activity
hSSTN 88-121: human SSTN, amino acids 88-121 of the human Sdc1 sequence, SEQ ID NO:28 (ASTSTLPAGEGPKEGEAVVLPEVEPGLTAREQEA)	–	disrupted	lack of activity
